What was measured:
[1] = biological target: T1, His-tagged BRD7 BD (Homo sapiens, UniProt Q9NPI1); experiment: Thermal shift assay; format: binding; conditions: compounds at 25, 10, or 1 μM
T1 sequence (Q9NPI1 131-235 limits assumed): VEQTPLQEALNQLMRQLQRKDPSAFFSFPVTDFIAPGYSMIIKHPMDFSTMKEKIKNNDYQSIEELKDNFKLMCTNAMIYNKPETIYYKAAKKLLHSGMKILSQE

[2] = tested on: 40 distinct BDs; experiment: BROMOscan BromoMAX panel; format: binding, human; conditions: for binding to other BDs in BROMOscan: 2 μM, BDs other than BRD7/BRD9; for selectivity in BROMOscan panel: 2 μM concentration
[3] = biological target: T2, His-tagged BRD9 BD (Homo sapiens, UniProt Q9H8M2); experiment: Thermal shift assay; format: binding; conditions: compounds at 25, 10, or 1 μM
T2 sequence (Q9H8M2 136-240 limits assumed): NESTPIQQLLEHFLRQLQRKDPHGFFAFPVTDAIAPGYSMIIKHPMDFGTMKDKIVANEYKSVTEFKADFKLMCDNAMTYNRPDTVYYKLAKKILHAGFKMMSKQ

[4] = biological target: T3, BRD9 BD (Homo sapiens, UniProt Q9H8M2); experiment: Microscale thermophoresis; format: binding; conditions: 50 nM His-tagged BRD9, ligand from 50 μM
T3 sequence (Q9H8M2 136-240 limits assumed): T2 sequence (Q9H8M2 136-240 limits assumed)

[5] = tested on: LNCaP, C4–2 and PC3 cells; experiment: Dose curves over 7 days of treatment, CellTiter-Glo; format: cell-based, human
[6] = tested on: 22Rv1 cells; experiment: On-target activity assessment in 22Rv1 cells with BRD7 knockdown; format: cell-based, human; conditions: 2.5 or 5 μM, 4 days, two shRNA constructs
[7] = biological target: T4, BRD7 BD (Homo sapiens, UniProt Q9NPI1); experiment: NanoBRET target engagement in HEK293T cells
T4 sequence (Q9NPI1 131-235 limits assumed): T1 sequence (Q9NPI1 131-235 limits assumed)

[8] = biological target: T5, His-tagged BRPF1B BD (Homo sapiens, UniProt P55201); experiment: Thermal shift assay; format: binding; conditions: compounds at 25, 10, or 1 μM
T5 sequence (P55201 628-732 limits assumed): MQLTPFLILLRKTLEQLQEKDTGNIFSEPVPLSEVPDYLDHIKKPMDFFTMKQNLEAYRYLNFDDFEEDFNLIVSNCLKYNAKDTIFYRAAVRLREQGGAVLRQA

[9] = tested on: LNCaP cells; experiment: Growth inhibition, CellTiter-Glo, 4 days; format: cell-based, human; conditions: 5, 1, and 0.1 μM
[10] = tested on: PC-3 cells; experiment: Growth inhibition, CellTiter-Glo, 4 days; format: cell-based, human; conditions: 5, 1, and 0.1 μM
[11] = biological target: T6, BRPF1B BD (Homo sapiens, UniProt P55201); experiment: BROMOscan BromoMAX panel; format: binding; conditions: 2 μM
T6 sequence (P55201 628-732 limits assumed): T5 sequence (P55201 628-732 limits assumed)

[12] = tested on: LNCaP cells; experiment: RNA-Seq gene expression in LNCaP cells; format: cell-based, human; conditions: 1 μM, 72 h
[13] = biological target: T6, BRPF1B BD; experiment: NanoBRET target engagement in HEK293T cells; format: cell-based
[14] = biological target: T7, BRD9 (Homo sapiens, UniProt Q9H8M2); experiment: Cell fractionation assay, BRD9 bound to chromatin; format: cell-based; conditions: HEK293T, 10 μM, 24 h
T7 sequence (Q9H8M2 1-597): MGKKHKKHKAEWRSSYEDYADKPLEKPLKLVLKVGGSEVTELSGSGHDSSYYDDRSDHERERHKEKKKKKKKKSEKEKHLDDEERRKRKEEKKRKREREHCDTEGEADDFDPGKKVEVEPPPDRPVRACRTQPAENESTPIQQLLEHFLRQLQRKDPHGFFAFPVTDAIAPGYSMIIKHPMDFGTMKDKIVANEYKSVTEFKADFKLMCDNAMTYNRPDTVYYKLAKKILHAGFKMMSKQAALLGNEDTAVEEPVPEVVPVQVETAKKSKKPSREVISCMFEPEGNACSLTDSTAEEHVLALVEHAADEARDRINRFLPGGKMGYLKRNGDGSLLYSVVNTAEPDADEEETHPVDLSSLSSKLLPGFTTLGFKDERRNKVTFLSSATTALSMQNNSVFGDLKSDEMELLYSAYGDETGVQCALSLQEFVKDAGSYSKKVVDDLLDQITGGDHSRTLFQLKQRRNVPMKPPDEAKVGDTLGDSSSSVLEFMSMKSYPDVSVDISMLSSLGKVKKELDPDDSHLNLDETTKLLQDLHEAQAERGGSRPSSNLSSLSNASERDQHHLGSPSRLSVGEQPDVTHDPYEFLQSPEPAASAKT

## Cc1cc(C)cc(-c2cn(C)c(=O)c3ccccc23)c1 [1–38, 4-(3,5-Dimethylphenyl)-2-methylisoquinolin-1(2H)-one]
[1]
  stabilization / Tm increase of BRD7 BD (TSA): stabilized and increased the Tm
[2]
  binding to other BDs in BROMOscan: no binding to other BDs
[3]
  stabilization / Tm increase of BRD9 BD (TSA): stabilized and increased the Tm

## COc1ccc(-c2ccc3c(C)cc(=O)n(C)c3c2)c(C)n1 [1–78, 7-(6-Methoxy-2-methylpyridin-3-yl)-1,4-dimethylquinolin-2(1H)-one]
[1]
  stabilization / Tm increase of BRD7 BD (TSA): increased the Tm
[4]
  binding to BRD9 (MST): no binding
[5]
  sensitivity of LNCaP and C4–2 cells relative to PC3 cells: 3−6 times
[6]
  viability of 22Rv1 cells with BRD7 knockdown: not significantly affected
[2]
  selectivity in BROMOscan panel: showed selectivity for BRD7 over BRD9
[7]
  IC50: 800 nM
[8]
  stabilization of BRPF1B BD (TSA): modest stabilization of BRPF1B at the highest concentration (25 μM)
[9]
  LNCaP cell growth: inhibited the cell growth
[10]
  PC-3 cell growth: active in PC-3 only at the highest concentration
[11]
  binding to BRPF1B BD in BROMOscan: off-target binding

## COc1ccc(-c2ccc3c(C)cc(=O)n(C)c3c2)c(OC)n1 [2–77, 7-(2,6-Dimethoxypyridin-3-yl)-1,4-dimethylquinolin-2(1H)-one]
[1]
  stabilization / Tm increase of BRD7 BD (TSA): increased the Tm
[12]
  GSEA Hallmark_Androgen_Response enrichment: significant and strong negative enrichment
[4]
  binding to BRD9 (MST): no binding
[5]
  sensitivity of LNCaP and C4–2 cells relative to PC3 cells: 3−6 times
[6]
  viability of 22Rv1 cells with BRD7 knockdown: less affected
[2]
  selectivity in BROMOscan panel: showed selectivity for BRD7 over BRD9
[7]
  IC50: 1200 nM
[9]
  LNCaP cell growth: inhibited the cell growth
[10]
  PC-3 cell growth: active in PC-3 only at the highest concentration
[11]
  binding to BRPF1B BD in BROMOscan: off-target binding
[13]
  IC50: > 10000 nM

## COc1ccc2ccccc2c1-c1ccc2c(C)cc(=O)n(C)c2c1 [2–81, 7-(2-Methoxynaphthalen-1-yl)-1,4-dimethylquinolin-2(1H)-one]
[2]
  binding to other BDs in BROMOscan: no binding to other BDs

## COc1ccc(-c2cn(C)c(=O)c3ccccc23)c(OC)n1 [2–88, 4-(2,6-Dimethoxypyridin-3-yl)-2-methylisoquinolin-1(2H)-one]
[1]
  stabilization / Tm increase of BRD7 BD (TSA): stabilized only BRD9 BD
[3]
  stabilization / Tm increase of BRD9 BD (TSA): stabilized only BRD9 BD

## COc1cc(-c2cn(C)c(=O)c3cnccc23)cc(OC)c1CN(C)C [BI7273, reference compound]
[1]
  stabilization / Tm increase of BRD7 BD (TSA): binding and stabilization
[9]
  LNCaP cell growth: little to no effect
[10]
  PC-3 cell growth: little to no effect

## COc1ccccc1C(=O)Nc1cc2c(cc1N1CCCCC1)n(C)c(=O)n2C [GSK-5959, reference compound]
[9]
  LNCaP cell growth: little to no effect
[10]
  PC-3 cell growth: little to no effect

## CCn1cc(-c2cccc(C(F)(F)F)c2)c2sc(C(=N)NC3CCS(=O)(=O)CC3)cc2c1=O [I-BRD9]
[14]
  BRD9 bound to chromatin after treatment: significantly reduced BRD9 from chromatin
